Columns and labels:
[1] = Urinary excretion of oleuropein metabolites after intake of olive leaf extract (pilot study, LC-MS)
Procedure: Specifically, urine samples were enzymatically treated to hydrolyze the glucuronide and sulfate moieties and release the free forms which were quantified. After sample purification by liquid-liquid extraction, the chromatographic separation was operated on an Acquity™ UPLC® BEH C18 column (1.7 μm, 2.1×150 mm). The mobile phase consisted of 1 mmol/L ammonium acetate buffer and methanol under gradient conditions at a flow-rate of 0.25 mL/min. Hydroxytyrosol, homovanillyl alcohol, and the homovanillyl alcohol isomer 3-hydroxy-4-methoxyphenethanol (alternatively named 3-hydroxy-4-methoxyphenethyl alcohol) were identified and quantified by high performance liquid chromatography-electrospray ionization tandem mass spectrometry (HPLC-ESI-MS/MS) and by comparison with their corresponding chemically synthesized standards.
The circulating concentration and kinetics of absorption of phenolic compounds and their metabolites in biological fluids (plasma or urine) depends on the matrix in which the compounds are ingested, the dose ingested, the time point of sample collection, the microflora of each individual, and the metabolism of each individual. To develop the most appropriate analytical approach for the measurement of OE absorption, a pilot study was conducted. Specifically, five subjects collected urine at baseline (before intake of the olive leaf extract) and between the intakes of two capsules of the olive leaf extract.
The analytical method (sample preparation, deconjugation conditions, chromatographic detection and separation) was first developed by spiking chemical standards which were commercially available in commercial urine. The deconjugation conditions were determined by using the conjugates available, hydroxytyrosol sulfate and homovanillyl alcohol glucuronide. The commercially available chemical standards were 3,4-Dihydroxybenzoic acid; 3,4-Dihydroxyphenylacetic acid; Homovanillic acid; Homovanillyl alcohol; Homovanillyl alcohol glucuronide (vanillyl methanol glucuronide); Hydroxytyrosol; Hydroxytyrosol sulfate (hydroxytyrosol sulfate triethylammonium salt); and Vanillic acid.
Briefly, the sample preparation consisted of a liquid-liquid extraction with ethyl acetate after a protein precipitation using acidified methanol.
Regarding chromatographic analysis, Oleuropein metabolites were separated by reversed-phase ultra-performance liquid chromatography using a C18-column Acquity UPLC BEH C18 1.7 μm, 2.1 mm×150 mm, (Waters AG, Switzerland). The system consisted of a LC system Acquity™ UPLC® (Waters AG, Switzerland) coupled with a Qtrap 5500 Mass spectrometer detector equipped with an electrospray ionization source (ABSciex, Switzerland). Detection was performed in the negative operating mode at unit resolution.
Specifically, a preliminary analysis of the urine samples collected after intake of the olive leaf extract was performed by electrospray ionization (ESI) in the negative ion mode, scanning for the different [M−H]^− ions at the theoretical m/z of the expected oleuropein metabolites and conjugates (Table 1).
Relative amount of the metabolites identified was first evaluated to clarify if their excretion in urine was increasing after intake of the olive leaf extract. This evaluation was based on the measurement of the area under the corresponding chromatographic peak, which reflects the amount.

Collagen-II = Collagen-II gene expression in chondrocytes in alginate beads, IL1-α stimulation; type: cell-based; details: two-hour pre-treatment, twenty-four hour IL1-α stimulation; polyphenols at 10 μM; FIG. 16A
Excerpt: (§1) Chondrocytes in alginate beads were subjected to a two-hour polyphenols pre-treatment followed by a twenty-four hour IL1-α stimulation.
Regarding FIG. 16A, Collagen-II is an anabolism-related gene for major structural components of the extracellular matrix of joints.

[2] = test system: inducible isoform of nitric oxide synthase (iNOS); test: iNOS gene expression in chondrocytes (anti-inflammatory effect); type: cell-based; details: FIG. 17A
Excerpt: as §1
(§2) Then the anti-inflammatory effect of oleuropein metabolites in chondrocytes was studied.
Regarding FIG. 17A, the inducible isoform of nitric oxide synthase (iNOS) is an inflammation-related gene linked to NO production.

inflamed chondrocytes [3] = test: Collagen in culture media of inflamed chondrocytes (catabolism); type: cell-based; details: FIG. 18B
Excerpt: as §1
(§3) Next it was shown that oleuropein metabolites prevent collagen breakdown in inflamed chondrocytes (FIGS. 18A and 18B). In this regard, collagen in extra-cellular matrix corresponds to the collagen synthesized by the cells, i.e., anabolism. […] Collagen in culture media corresponds to the collagen degraded by cells and released in the media, i.e., […].

chondrocytes = test: Effects of oleuropein metabolites on chondrocytes (overall); type: cell-based; details: synthetic form; comparison with hydroxytyrosol
Procedure: As also set forth in detail later herein, several metabolites of oleuropein were tested for their effects on chondrocytes.
as §1

cyclooxygenase-2 (COX-2) = test: COX-2 gene expression in chondrocytes (anti-inflammatory effect); type: cell-based; details: FIG. 17B
Procedure: as §1, §2
Regarding FIG. 17B, cyclooxygenase-2 (COX-2) is another inflammation-related gene. It is linked to the Prostaglandin E2 (PGE2) pathway. OLP, EA and HVOH were efficient at 2 μM. OLP, OEA and HVOH were efficient at 10 μM.

inflamed chondrocytes [4] = test: Collagen in extra-cellular matrix of inflamed chondrocytes (anabolism); type: cell-based; details: FIG. 18A
Excerpt: as §1, §3

[5] = urine after intake of olive leaf extract, LC-MS, MS2/MS3

For `O=C(O)c1ccc(O)c(O)c1` [3,4-dihydroxybenzoic acid], the “change of amount in urine (area under the peak) after intake of olive leaf extract versus basal” value (from here on “change of amount in urine”) ([1]; in vivo) was “do not increase” and the “detection and identification in urine” value ([1]; in vivo) was “detected in samples after intake of the olive leaf extract and in basal samples”.

With `O=C(O)Cc1ccc(O)c(O)c1` [3,4-dihydroxyphenylacetic acid, 3,4-Dihydroxyphenylacetic acid] the “change of amount in urine” value ([1]; in vivo) was “do not increase” and the “detection and identification in urine” value ([1]; in vivo) was “detected in samples after intake of the olive leaf extract and in basal samples”.

For `COc1cc(CCO)ccc1O[C@@H]1O[C@H](C(=O)O)[C@@H](O)[C@H](O)[C@H]1O` [Homovanillyl alcohol glucuronide], the “Number of forms confirmed in urine” value ([1]; in vivo) was 1 and the “detection and identification in urine” value ([1]; in vivo) was “Presence & identity confirmed”.

With `COc1cc(CC(=O)O)ccc1O` [homovanillic acid, Homovanillic acid] the “change of amount in urine” value ([1]; FIG. 15, subjects 1 to 5) was “do not increase”.

With `COc1ccc(CCO)cc1O` [homovanillyl alcohol isomer, 3-hydroxy-4-methoxyphenethanol] the “Collagen-II gene expression (protective effect)” value (Collagen-II) was “significant effect”, the “iNOS gene expression (protective effect)” value ([2]; 2 μM) was “significant effect” and the “iNOS gene expression (protective effect)” value ([2]; 10 μM) was “significant effect”. For the same compound, the “collagen in culture media (collagen degraded and released, catabolism)” value (“collagen in culture media” for short) (inflamed chondrocytes [3]) was “potent anti-breakdown effect (improved over control)” and the effects on chondrocytes (chondrocytes) was “more effective than hydroxytyrosol”.

For `COc1cc(CCO)ccc1O` [homovanillyl alcohol], the “Number of forms confirmed in urine” value ([1]; human, in vivo) was 2, the “change of amount in urine” value ([1]; in vivo) was “specifically increase after intake of olive leaf extract” and the “detection and identification in urine” value ([1]; in vivo) was “Presence & identity confirmed”. For the same compound, the “form excreted in urine” value ([1]; in vivo) was “mainly as conjugated form”, the COX-2 gene expression (cyclooxygenase-2 (COX-2); 2 μM) was “efficient” and the COX-2 gene expression (cyclooxygenase-2 (COX-2); 10 μM) was “efficient”. For the same compound, the “collagen in culture media” value (inflamed chondrocytes [3]) was “potent anti-breakdown effect (improved over control)” and the effects on chondrocytes (chondrocytes) was “more effective than hydroxytyrosol”.

In the case of `OCCc1ccc(O)c(O)c1` [hydroxytyrosol, 3,4-dihydroxyphenylethanol, reference compound], the “Number of forms confirmed in urine” value ([1]; human, in vivo) was 1, the “average of the area under the chromatographic peak in urine” value ([1]; human, in vivo) was 7.7×10^6 and the “change of amount in urine” value ([1]; in vivo) was “specifically increase after intake of olive leaf extract”. The “detection and identification in urine” value ([1]; in vivo) was “Presence & identity confirmed”, the “form excreted in urine” value ([1]; in vivo) was “mainly as conjugated form” and the “relative abundance excreted in urine” value ([1]; in vivo) was “more abundant than HVOH”.

For `CC=C1C(O)OC=C(C(=O)OC)C1CC(=O)OCCc1ccc(O)c(O)c1` (stereo not drawn) [oleuropein aglycone, 3,4-dihydroxyphenylethanol-elenolic acid], the “Number of forms confirmed in urine” value ([1]; in vivo) was 1, the “average of the area under the chromatographic peak in urine” value ([1]; in vivo) was 2×10^6 and the COX-2 gene expression (cyclooxygenase-2 (COX-2); 10 μM) was “efficient”. The “collagen in extra-cellular matrix (collagen synthesized by the cells, anabolism)” value (inflamed chondrocytes [4]) was “protective effect”.

In the case of `COc1cc(C(=O)O)ccc1O` [vanillic acid, Vanillic acid], the “change of amount in urine” value ([1]; human, in vivo) was “strongly increases in urine of subjects 2 and 4, but not as much in subjects 1, 3 and 5” and the “detection and identification in urine” value [1, 5] was “detected in samples after intake of the olive leaf extract and in basal samples”.

With Elenolic acid [EA] the “detection and identification in urine” value ([1]; in vivo) was “none of them could be confirmed as being EA”, the COX-2 gene expression (cyclooxygenase-2 (COX-2); 2 μM) was “efficient” and the “collagen in culture media” value (inflamed chondrocytes [3]) was “potent anti-breakdown effect (improved over control)”.

For Elenolic acid sulfate [EA-S], the “detection and identification in urine” value ([1]; in vivo) was “Neither ion of elenolic acid sulfate nor of elenolic acid glucuronide (EA-S or EA-G) could be detected”.

In the case of Hydroxytyrosol sulfate, the “Number of forms confirmed in urine” value ([1]; urine after intake of olive leaf extract) was 1 and the “detection and identification in urine” value [1, 5] was “Presence & identity confirmed”.

In the case of Methylated oleuropein aglycone, the “detection and identification in urine” value ([1]; in vivo) was “Not detected”.

With Oleuropein aglycone glucuronide the “Number of forms confirmed in urine” value ([1]; in vivo) was 2 and the “detection and identification in urine” value ([1]; in vivo) was “Presence & identity confirmed”.

For Oleuropein aglycone sulfate, the “Number of forms confirmed in urine” value ([1]; in vivo) was 1.

From patent US20250228794A1, “HOMOVANILLYL ALCOHOL (HVA), HVA ISOMER, METHODS OF MAKING COMPOSITIONS COMPRISING SUCH COMPOUNDS, AND METHODS USING SUCH COMPOUNDS” (SOCIETE DES PRODUITS NESTLE S.A., priority 2017, published 2025)
